Like-named read-outs stand apart in the source and are kept apart here.
What was measured:
Tetranychus urticae = assay: Tetranychus test (OP-resistant/dip treatment); assay type: in vivo; settings: 100 ppm active compound, bean plants dipped, OP-resistant
Description: [table] To produce a suitable preparation of active compound, 1 part by weight of active compound is mixed with the stated amounts of solvent and emulsifier, and the concentrate is diluted with emulsifier-containing water to the desired concentration. Bean plants (Phaseolus vulgaris) which are heavily infested by all stages of the greenhouse […] spider mite (Tetranychus urticae) are dipped into a preparation of active compound of the desired concentration. After the desired period of time, the activity in % is determined. 100% means that all spider mites have been killed; 0% means that none of the spider mites have been killed.

Meloidogyne incognita = assay: Meloidogyne test (gall formation on lettuce roots); assay type: in vivo; settings: 20 ppm active compound, nematicidal action by gall formation
Description: [table] To produce a suitable preparation of active compound, 1 part by weight of active compound is mixed with the stated amounts of solvent and emulsifier, and the concentrate is diluted with water to the desired concentration. Vessels are filled with sand, solution of active compound, Meloidogyne incognita egg/larvae suspension and lettuce seeds. The lettuce seeds germinate and the plants develop. On the roots, galls develop. After the desired period of time, the nematicidal action is determined in % by the formation of galls. 100% means that no galls have been found; 0% means that the number of galls on the treated plants corresponds to that of the untreated control.

Echinochloa [1] = assay: Pre-emergence test, Echinochloa; assay type: in vivo; settings: pre-emergence/greenhouse; 250 g of ai/ha; after three weeks
Description: (§1) [table] To produce a suitable preparation of active compound, 1 part by weight of active compound is mixed with the stated amount of solvent, the stated amount of emulsifier is added and the concentrate is diluted with water to the desired concentration. Seeds of the test plants are sown in normal soil. After about 24 hours, the soil is sprayed with the preparation of active compound such that the particular amounts of active compound desired are applied per unit area. The concentration of the spray liquor is chosen such that the particular amounts of active compound desired are applied in 1000 l of water/ha. After three weeks, the degree of damage to the plants is rated in % damage in comparison to the development of the untreated control. The figures denote: • 0%=no effect (like untreated control) • 100%=total destruction

Alopecurus [2] = assay: Post-emergence test, Alopecurus; assay type: in vivo; settings: post-emergence/greenhouse; 250 g of ai/ha; after three weeks
Description: as §1, with “Test plants” for “Seeds”, “a height of 5-15 cm” for “the test plants”, “are” for “are sown in normal soil. After about 24 hours, the soil is”, “(=like” for “(like”

Amaranthus [3] = assay: Pre-emergence test, Amaranthus; assay type: in vivo; settings: pre-emergence/greenhouse; 250 g of ai/ha; after three weeks
Description: as §1

Avena fatua [4] = assay: Post-emergence test, Avena fatua; assay type: in vivo; settings: post-emergence/greenhouse; 250 g of ai/ha; after three weeks
Description: as §1, with “Test plants” for “Seeds”, “a height of 5-15 cm” for “the test plants”, “are” for “are sown in normal soil. After about 24 hours, the soil is”, “(=like” for “(like”

Alopecurus [5] = assay: Pre-emergence test, Alopecurus; assay type: in vivo; settings: pre-emergence/greenhouse; 250 g of ai/ha; after three weeks
Description: as §1

Sinapis [6] = assay: Post-emergence test, Sinapis; assay type: in vivo; settings: post-emergence/greenhouse; 250 g of ai/ha; after three weeks
Description: as §1, with “Test plants” for “Seeds”, “a height of 5-15 cm” for “the test plants”, “are” for “are sown in normal soil. After about 24 hours, the soil is”, “(=like” for “(like”

Echinochloa [7] = assay: Post-emergence test, Echinochloa; assay type: in vivo; settings: post-emergence/greenhouse; 250 g of ai/ha; after three weeks
Description: as §1, with “Test plants” for “Seeds”, “a height of 5-15 cm” for “the test plants”, “are” for “are sown in normal soil. After about 24 hours, the soil is”, “(=like” for “(like”

Sinapis [8] = assay: Pre-emergence test, Sinapis; assay type: in vivo; settings: pre-emergence/greenhouse; 250 g of ai/ha; after three weeks
Description: as §1

Setaria [9] = assay: Post-emergence test, Setaria; assay type: in vivo; settings: post-emergence/greenhouse; 250 g of ai/ha; after three weeks
Description: as §1, with “Test plants” for “Seeds”, “a height of 5-15 cm” for “the test plants”, “are” for “are sown in normal soil. After about 24 hours, the soil is”, “(=like” for “(like”

Setaria [10] = assay: Pre-emergence test, Setaria; assay type: in vivo; settings: pre-emergence/greenhouse; 250 g of ai/ha; after three weeks
Description: as §1

Avena fatua [11] = assay: Pre-emergence test, Avena fatua; assay type: in vivo; settings: pre-emergence/greenhouse; 250 g of ai/ha; after three weeks
Description: as §1

Amaranthus [12] = assay: Post-emergence test, Amaranthus; assay type: in vivo; settings: post-emergence/greenhouse; 250 g of ai/ha; after three weeks
Description: as §1, with “Test plants” for “Seeds”, “a height of 5-15 cm” for “the test plants”, “are” for “are sown in normal soil. After about 24 hours, the soil is”, “(=like” for “(like”

Myzus persicae [13] = assay: Myzus test (leaf dip, cabbage); assay type: in vivo; settings: 500 ppm active compound, cabbage leaves dipped
Description: (§2) [table] To produce a suitable preparation of active compound, 1 part by weight of active compound is mixed with the stated amounts of solvent and emulsifier, and the concentrate is diluted with emulsifier-containing water to the desired concentration. Cabbage leaves (Brassica oleracea) which are heavily infested by peach aphids (Myzus persicae) are treated by being dipped into the preparation of active compound of the desired concentration. After the desired period of time, the kill in % is determined. 100% means that all aphids have been killed; 0% means that none of the aphids have been killed.

Phaedon cochleariae = assay: Phaedon larvae test; assay type: in vivo; settings: 500 ppm active compound, cabbage leaves dipped
Description: [table] To produce a suitable preparation of active compound, 1 part by weight of active compound is mixed with the stated amounts of solvent and emulsifier, and the concentrate is diluted with emulsifier-containing water to the desired concentration. Cabbage leaves (Brassica oleracea) are treated by being dipped into the preparation of active compound of the desired concentration and are populated with larvae of the mustard beetle (Phaedon cochleariae) while leaves are still moist. After the desired period of time, the kill in % is determined. 100% means that all beetle larvae have been killed; 0% means that none of the beetle larvae have been killed.

Aphis gossypii [14] = assay: Test for persistency: Aphis gossypii (root-systemic action); assay type: in vivo; settings: 4 ppm in soil, cotton
Description: (§3) [table] To produce a suitable preparation of active compound, 1 part by weight of active compound is mixed with the stated amounts of solvent and emulsifier, and the concentrate is diluted with water to the desired concentration. The preparation of active compound is mixed intimately with the soil. The stated concentration refers to the amount of active compound per volume unit of soil (mg/l). The treated soil is filled into pots, and into these pots is planted cotton at the cotyledon stage. In this way, the active compound can be taken up from the soil into the roots of the plants and be transported into the leaves. After the stated number of days, cotton aphids (Aphis gossypii) are, in infection chambers, placed on the leaves. After the desired period of time, the kill in % is determined. 100% means that all aphids have been killed; 0% means that none of the aphids have been killed.

Myzus persicae [15] = assay: Test for persistency: Myzus persicae (root-systemic action); assay type: in vivo; settings: 4 ppm in soil, broad beans
Description: as §3, with “pre-germinated broad beans.” for “cotton at the cotyledon stage.”, “peach” for “cotton”, “(Myzus persicae)” for “(Aphis gossypii)”

Aphis gossypii [16] = assay: Aphis gossypii test (leaf dip, cotton); assay type: in vivo; settings: 500 ppm active compound, cotton leaves dipped
Description: as §2, with “Cotton” for “Cabbage”, “(Gossypium hirsutum)” for “(Brassica oleracea)”, “the cotton” for “peach”, “(Aphis gossypii)” for “(Myzus persicae)”

log P determination = assay type: physicochemical

For `COC1CCC2(CC1)NC(=O)C(Cl)(c1ccc(OC(F)(F)F)cc1C)C2=O` (stereo not drawn) [Ex. I-1-a-22], the “Kill rate in % after 7d” value (Tetranychus urticae) was 100%.

With `COC1CCC2(CC1)NC(=O)C(Cl)(c1c(Cl)ccc(C)c1Cl)C2=O` (stereo not drawn) [Ex. I-1-a-33] the “Kill rate in % after 14d” value (Meloidogyne incognita) was 98%.

In the case of `CCOC1CCC2(CC1)NC(=O)C(Cl)(c1c(C)cc(C)cc1C)C2=O` (stereo not drawn) [Ex. I-1-a-4], the “% damage, Echinochloa” value (Echinochloa [1]) is reported as 100%, the “% damage, Alopecurus” value (Alopecurus [2]) is reported as 95% and the “% damage, Amaranthus” value (Amaranthus [3]) is reported as 100%. For the same molecule, the “% damage, Avena fatua” value (Avena fatua [4]) was 95%, the “% damage, Alopecurus” value (Alopecurus [5]) was 100% and the “% damage, Sinapis” value (Sinapis [6]) was 95%. For the same molecule, the “% damage, Echinochloa” value (Echinochloa [7]) was 100%, the “% damage, Sinapis” value (Sinapis [8]) was 95% and the “% damage, Setaria” value (Setaria [9]) was 100%. For the same molecule, the “% damage, Setaria” value (Setaria [10]) was 100%, the “% damage, Avena fatua” value (Avena fatua [11]) was 90% and the “% damage, Amaranthus” value (Amaranthus [12]) was 90%.

In the case of `Cc1cc(Cl)ccc1C1(Cl)C(=O)NC2(CCOCC2)C1=O` (stereo not drawn) [Ex. I-1-c-4], the “Kill rate in % after 6d” value (Myzus persicae [13]) is reported as 95%.

For `COC1CCC2(CC1)NC(=O)C(Cl)(c1c(Cl)cc(Cl)cc1Cl)C2=O` (stereo not drawn) [Ex. I-1-a-42], the “Kill rate in % after 6d” value (Myzus persicae [13]) was 95% and the “Kill rate in % after 14d” value (Meloidogyne incognita) was 90%.

With `CCOC1CCC2(CC1)NC(=O)C(Cl)(c1cc(C)ccc1Br)C2=O` (stereo not drawn) [Ex. I-1-a-41] the “Kill rate in % after 7d” value (Phaedon cochleariae) was 100% and the “Kill rate in % after 7d” value (Tetranychus urticae) was 95%.

For `Cc1cc(Br)cc(Cl)c1C1(Cl)C(=O)NC2(CCCOC2)C1=O` (stereo not drawn) [Ex. I-1-b-8], the “Kill rate in % after 7d” value (Phaedon cochleariae) was 100%.

In the case of `COC1CCC2(CC1)NC(=O)C(Cl)(c1cc(C)ccc1Cl)C2=O` (stereo not drawn) [Ex. I-1-a-1], the “Kill rate in % after 7d” value (Phaedon cochleariae) is reported as 100%.

For `Cc1cc(Cl)cc(Cl)c1C1(Cl)C(=O)NC2(CCOC(C)C2)C1=O` (stereo not drawn) [Ex. I-1-c-1], the “Kill rate in % after 7d” value (Aphis gossypii [14]; infection after 7 d) was 99%, the “Kill rate in % after 7d” value (Aphis gossypii [14]; infection after 21 d) was 99^ % and the “Kill rate in % after 7d” value (Aphis gossypii [14]; infection after 35 d) was 98^ %. The “Kill rate in % after 7d” value (Myzus persicae [15]; infection after 7 d) was 100%, the “Kill rate in % after 7d” value (Myzus persicae [15]; infection after 21 d) was 100% and the “Kill rate in % after 7d” value (Myzus persicae [15]; infection after 35 d) was 100%. The “Kill rate in % after 6d” value (Aphis gossypii [16]) was 90%.

With `COc1cc(C(F)(F)F)cc(Cl)c1C1(Cl)C(=O)NC2(CCC(OC)CC2)C1=O` (stereo not drawn) [Ex. I-1-a-5] the “Kill rate in % after 7d” value (Tetranychus urticae) was 95%.

For `COC1CCC2(CC1)OC(=O)C(c1cc(C)c(C)cc1C)([N+](=O)[O-])C2=O` (stereo not drawn) [I-2-a-2], the “log P” value (log P determination; isomer mixture, two values) was 4.42, the “logP (2.3)” value (log P determination; pH 2.3) was 4.42 and the logP (log P determination; pH 2.3, isomer mixture, two values, read-out: log P) was 4.17. The logP (log P determination; pH 2.3, pH 2.3, read-out: logP (2.3)) was 4.17.

Source: US8063096B2, “Spirocyclic 3-phenyl-3substituted-4-ketolactams and-lactones” (Bayer Cropscience AG, priority 2001, dated 2011)
